Results: US20090047365A1, “Novel Concomitant Use of Sulfonamide Compound with Anti-Cancer Agent” (Eisai R & D Management Co., Ltd., priority 2005, published 2009)
Several values for one entry are separate records, joined by “and”; a condition that tells them apart may be missing. Equal values may be shown once. Where a name gives a salt, the structure may show the parent alone. Read-outs that look alike come from different tables or passages of the source.

How the values were obtained:
[1] = tested on: Human umbilical vein endothelial cells; experiment: vascular endothelial cell proliferation assay (in vitro), combinational use of E7820 and anti-cancer drug; type: cell-based
Procedure: These diluted solutions were added to the cultured wells for 100 μl/well for further cultivation.

[2] = tested on: Human umbilical vein endothelial cell (HUVEC); experiment: vascular endothelial cell lumen formation assay (in vitro), combinational use of E7820 and anti-cancer drug; type: cell-based
Procedure: Four-hundred μl of type I collagen gel (Nitta Gelatin) was dispensed in a 24-well plate (FALCON) and left in a CO2 incubator at 37° C. for 40 minute for gelatinization. A serum-free medium (Human endothelial-SFM Basal Growth Medium, Invitrogen) containing 20 ng/ml EGF (GIBCO BRL) was prepared. Two-hundred μl of this solution was dispensed in the wells containing type I collagen gel. Human umbilical vein endothelial cell (HUVEC) line was suspended in a serum-free medium (Human endothelial-SFM Basal Growth Medium, GIBCO BRL) to prepare 5×10^5 cells/ml cell suspension. Two-hundred μl of this suspension was seeded on the wells containing the type I collagen gel and the serum-free medium and cultured overnight.
On the following day, the wells were overlaid with 400 μl of type I collagen gel and left in a CO2 incubator at 37° C. for 3 hours for gelatinization. Then, the serum-free media (containing 10 ng/ml EGF and 20 ng/ml VEGF (Genzyme Techne Corp.)) containing E7820 alone, containing an anti-cancer drug alone and containing both E7820 and the anti-cancer drug for combinational use were added for 1.5 ml each and further cultured in a CO2 incubator at 37° C. for 3 days.
After the cultivation, 400 μl of 3.3 mg/ml MTT (SIGMA) solution was dispensed in the wells and reacted in a CO2 incubator at 37° C. for 3 hours for the cells to develop color.

[3] = tested on: HCT116 cells; experiment: DNA microarray analysis (Example 8), correlation coefficients and hierarchical cluster analysis; type: cell-based, human; conditions: 24 hours treatment at twice the 50% growth inhibitory concentration, similarity among the compounds named together
Procedure: HCT116 cells were cultured in an RPMI-1640 medium supplemented with 10% fetal bovine serum, 100 units/ml penicillin and 100 μg/ml streptomycin. The following cultivation and compound treatment were carried out in an incubator at 5% CO2 and 37° C. HCT116 cells were seeded in 10 cm-diameter cell culture dishes at 2.0×10^6 cells/dish, cultured for 24 hours and subjected to the following compound treatment.
In this example, changes in the gene expression of HCT116 cells upon treatments with 12 compounds, i.e., E7820 (0.16 μM), E7070 (0.26 μM), LY186641 (59 μM), LY295501 (24 μM), LY-573636 (9.6 μM), CQS (4.0 μM), MST16 (100 μM), etoposide (3.6 μM), ethoxzolamide (410 μM), capsaicin (280 μM), trichostatin A (0.16 μM) and kenpaullone (7.1 μM) were examined.
The concentration of each compound used for the treatment was set to twice the 50% growth inhibitory concentration of each compound to the HCT116 cells (based on three days of antiproliferatrive activity using MTT). The cells were collected 24 hours after the treatment at the concentration indicated in parentheses following each compound name above. Similarly, cells cultured for 24 hours without the addition of any compound were also collected.
Total RNA extraction from the collected cells was performed using TRIZOL reagent (Invitrogen) according to the attached instruction.
Gene expression analysis using a DNA microarray was carried out in the same manner as “(2) Analysis of gene expression using DNA microarray” in Example 7.
This example was conducted for each sample in duplicate (for the convenience of the experiment, samples were given branch numbers like control-1, control-2, E7070-1, E7070-2 and so on for distinction). Then, GeneChip (Affymetrix) system (Human Focus array) was used for analyzing changes in the gene expression induced by each compound.
Twenty-six “.cel” files obtained in this example (13 samples (a control+12 compounds)×2) were subjected to RMA method (robust multi-array average method (Biostatistics (2003), 4, 249-264)) for normal distribution at probe level, and then the logarithm value of the signal intensity at gene level was calculated. Next, the logarithm value of the signal intensity of the untreated group (control-1) was subtracted from the logarithm value of the signal intensity of the compound-treated group for each gene to obtain the logarithm value of the signal ratio of the compound-treated group to control-1. Then, cosine correlation coefficients were calculated as correlation coefficients between the experiments (FIG. 5). Based on these correlation coefficients, hierarchical cluster analysis was performed according to UPGMA method (Unweighted Pair Group Method with Arithmetic mean method) (FIG. 6). Control-2 was also subjected to similar calculation (FIGS. 7 and 8). The softwares used were R 2.0.1 (http://www.r-project.org/) and affy package 1.5.8 (http://www.bioconductor.org).

[4] = tested on: HCT116-C9; experiment: cell growth inhibition assay (MTT), parent line of E7070-resistant lines; type: cell-based, human; conditions: HCT116-C9, 72 hours, Example 11, read-out: antiproliferative activity IC50
Procedure: An E7070-resistant cell line was used to assess the antiproliferative activities of E7820, LY186641, LY295501, LY-ASAP and CQS. HCT116-C9 was a substrain separated from human colon cancer-derived HCT116 (American Type Culture Collection, Manassas, Va., U.S.A.). This HCT116-C9 was cultured in the presence of E7070 while incrementally increasing the E7070 concentration, thereby obtaining E7070-resistant substrains HCT116-C9-C1 and HCT116-C9-C4 (Molecular Cancer Therapeutics, 2002, 1, 275-286).
Three cell lines, i.e., HCT116-C9, HCT116-C9-C1 and HCT116-C9-C4, were each seeded at 3000 cells/well onto a 96-well microplate (flat bottom) (50 μl/well). Twenty-four hours later, they were added with a 3-fold dilution series of each compound (50 μl/well). Seventy-two hours later, the antiproliferative activities were assessed by MTT method (Mossmann T., J. Immunol. Methods, 1983, 65, 55-63). The 50% growth inhibitory concentrations to the cancer cells were obtained by a least square method.
In exactly the same manner as in Example 10, an E7070-resistant cell line was used to assess the antiproliferative activities of LY573636 as well as those of E7070.

[5] = combined with E7820, fa 0.6, HUVEC proliferation
[6] = combined with E7820, fa 0.7, HUVEC proliferation
[7] = combined with E7820, fa 0.8, HUVEC proliferation
[8] = combined with E7820, fa 0.9, HUVEC proliferation
[9] = combined with E7820, fa 0.95, HUVEC proliferation

Compound | Combined effect [1, 6] | Combined effect [1, 7] | Combined effect [1, 8] | Combined effect [1, 9] | Combined effect ([2]; combined with E7820, fa 0.3) | Combined effect ([2]; combined with E7820, fa 0.4) | Combined effect ([2]; combined with E7820, fa 0.5) | Combined effect ([2]; combined with E7820, fa 0.6) | Combined effect ([2]; combined with E7820, fa 0.7) | Combined effect ([2]; combined with E7820, fa 0.8) | Combined effect ([2]; combined with E7820, fa 0.9) | Combined effect ([2]; combined with E7820, fa 0.95) | changes in gene expression (correlation coefficients, hierarchical cluster analysis) [3] | other results
10-[(3-amino-2,3,6-trideoxy-α-L-lyxo-hexopyranosyl)oxy]-7,8,9,10-tetrahydro-6,8,11-tri hydroxy-8-(hydroxyacetyl)-1-methoxy-(8S-cis)-5,12-naphthacenedione [Doxorubicin] | Synergistic | Synergistic | Synergistic | Synergistic | Synergistic | Synergistic | Synergistic | Synergistic | Synergistic | Synergistic | Synergistic | Synergistic |  | Combined effect [1, 5]: Synergistic; Combined effect ([2]; combined with E7820, fa 0.2): Synergistic
Nc1ccc(S(=O)(=O)Nc2cnc3c(Cl)cccc3n2)cc1 [CQS, 2-sulfanylamide-5-chloroquinoxaline] |  |  |  |  |  |  |  |  |  |  |  |  | very similar genetic alterations | 
N.N.[Cl][Pt][Cl] [Cisplatin, cis-diamminedichloroplatinum II] | Synergistic | Synergistic | Synergistic | Synergistic | Synergistic | Synergistic | Synergistic | Synergistic | Synergistic | Synergistic | Synergistic | Synergistic |  | Combined effect [1, 5]: Synergistic; Combination index (CI) [1, 6]: 0.7; Combination index (CI) [1, 7]: 0.5; Combination index (CI) [1, 8]: 0.4; Combination index (CI) [1, 9]: 0.3; Combination index (CI) ([1]; combined with E7820, fractional inhibition (fa) 0.6, HUVEC proliferation): 0.9; Combination index (CI) ([2]; combined with E7820, fa 0.05): 0.7; Combined effect ([2]; combined with E7820, fa 0.05): Synergistic; Combination index (CI) ([2]; combined with E7820, fa 0.1): 0.6; Combined effect ([2]; combined with E7820, fa 0.1): Synergistic; Combination index (CI) ([2]; combined with E7820, fa 0.2): 0.6; Combined effect ([2]; combined with E7820, fa 0.2): Synergistic; Combination index (CI) ([2]; combined with E7820, fa 0.3): 0.6; Combination index (CI) ([2]; combined with E7820, fa 0.4): 0.5; Combination index (CI) ([2]; combined with E7820, fa 0.5): 0.5; Combination index (CI) ([2]; combined with E7820, fa 0.6): 0.5; Combination index (CI) ([2]; combined with E7820, fa 0.7): 0.5; Combination index (CI) ([2]; combined with E7820, fa 0.8): 0.5; Combination index (CI) ([2]; combined with E7820, fa 0.9): 0.5; Combination index (CI) ([2]; combined with E7820, fa 0.95): 0.4
NS(=O)(=O)c1ccc(S(=O)(=O)Nc2cccc3c(Cl)c[nH]c23)cc1 [E7070, N-(3-chloro-1H-indole-7-yl)-4-sulfamoylbenzenesulfonamide] |  |  |  |  |  |  |  |  |  |  |  |  | very similar genetic alterations | IC50 [4]: 127 nM
Nc1ccn([C@@H]2O[C@H](CO)[C@@H](O)C2(F)F)c(=O)n1 [Gemcitabine, 2′-deoxy-2′,2′-difluoro-cytidine hydrochloride] |  | Synergistic | Synergistic |  | Synergistic | Synergistic | Synergistic | Synergistic | Synergistic | Synergistic | Synergistic | Synergistic |  | 
O=C(Nc1ccc(Cl)cc1)NS(=O)(=O)c1ccc2c(c1)CCC2 [LY186641, N-[[(4-chlorophenyl)amino]carbonyl]-2,3-dihydro-1H-indene-5-sulfonamide] |  |  |  |  |  |  |  |  |  |  |  |  | very similar genetic alterations | 
O=C(Nc1ccc(Cl)c(Cl)c1)NS(=O)(=O)c1ccc2c(c1)CCO2 [LY295501, N-[[(3,4-dichlorophenyl)amino]carbonyl]-2,3-dihydrobenzofuran-5-sulfonamide] |  |  |  |  |  |  |  |  |  |  |  |  | very similar genetic alterations | 
O=C(NS(=O)(=O)c1ccc(Br)s1)c1ccc(Cl)cc1Cl [LY573636, N-(2,4-dichlorobenzoyl)-5-bromothiophene-2-sulfonamide] |  |  |  |  |  |  |  |  |  |  |  |  | very similar genetic alterations | 
CN(Cc1cnc2nc(N)nc(N)c2n1)c1ccc(C(=O)N[C@@H](CCC(=O)O)C(=O)O)cc1 [Methotrexate, N-{4-[N-(2,4-diaminopteridin-6-ylmethyl)-N-methylamino]benzoyl}-L-glutamic acid] |  |  | Synergistic | Synergistic |  |  |  |  |  |  |  |  |  | 
CC(=O)O[C@H]1C(=O)[C@@]2(C)[C@H]([C@H](OC(=O)c3ccccc3)[C@]3(O)C[C@H](OC(=O)[C@H](O)[C@@H](NC(=O)c4ccccc4)c4ccccc4)C(C)=C1C3(C)C)[C@]1(OC(C)=O)CO[C@@H]1C[C@@H]2O [Paclitaxel, (−)-(1S, 2R, 3S, 4S, 5R, 7S, 8S, 10R, 13S)-4,10-diacetoxy-2-benzoyloxy-5,20-epoxy, 1,7-dihydroxy-9-oxotax-11-en-13-yl (2S,3S)-3-benzoylamino-2-hydroxy-3-phenylpropionate] | Synergistic | Synergistic | Synergistic | Synergistic |  |  |  |  | Synergistic | Synergistic | Synergistic | Synergistic |  | 
CCc1c2c(nc3ccc(O)cc13)-c1cc3c(c(=O)n1C2)COC(=O)[C@]3(O)CC [SN38, 7-ethyl-10-hydro-(20)S-Camptothecin] | Synergistic | Synergistic | Synergistic | Synergistic | Synergistic | Synergistic | Synergistic | Synergistic | Synergistic | Synergistic | Synergistic | Synergistic |  | Combination index (CI) [1]: 0.6 and 0.5 and 0.8; Combined effect [1, 5]: Synergistic
